The values that follow come from article PMC12599248, “Selectivity profiles and substrate recognition of Rab-phosphorylating kinases” (Biochemical Journal, 2025).

In one experiment the target is T1, Rab9A (Homo sapiens, UniProt P51151).
T1 construct: near full-length without C-terminal prenylation region; pET-28a, His6 tag cut by TEV; E. coli BL21(DE3)
T1 sequence (P51151 1-180 limits assumed): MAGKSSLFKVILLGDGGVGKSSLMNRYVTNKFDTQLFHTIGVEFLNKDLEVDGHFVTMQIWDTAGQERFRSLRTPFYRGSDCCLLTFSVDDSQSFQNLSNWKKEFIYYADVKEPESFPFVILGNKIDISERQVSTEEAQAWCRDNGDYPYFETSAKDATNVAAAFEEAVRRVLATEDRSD
As to the kind of experiment: dynamic scanning fluorimetry (SYPRO Orange). In kind it is binding. To be noted: 1 mM nucleotide, 4 uM protein, 2.5 mM MgCl2, pH 7.4.

The target in a further experiment is T2, Rab7A (Homo sapiens, UniProt P51149).
T2 construct: near full-length without C-terminal prenylation region; pET-28a, His6 tag cut by TEV; E. coli BL21(DE3)
T2 sequence (P51149 1-185 limits assumed): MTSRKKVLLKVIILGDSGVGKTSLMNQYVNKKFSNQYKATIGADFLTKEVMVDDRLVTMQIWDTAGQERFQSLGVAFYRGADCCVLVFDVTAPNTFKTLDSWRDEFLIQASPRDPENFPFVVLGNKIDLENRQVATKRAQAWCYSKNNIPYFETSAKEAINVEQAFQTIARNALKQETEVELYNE
As to the kind of experiment: dynamic scanning fluorimetry (SYPRO Orange). In kind it is binding. To be noted: 1 mM nucleotide, 4 uM protein, 2.5 mM MgCl2, pH 7.4.

The next experiment has as its target T3, Rab13 (Homo sapiens, UniProt P51153).
T3 construct: near full-length without C-terminal prenylation region; pET-28a, His6 tag cut by TEV; E. coli BL21(DE3)
T3 sequence (P51153 1-180 limits assumed): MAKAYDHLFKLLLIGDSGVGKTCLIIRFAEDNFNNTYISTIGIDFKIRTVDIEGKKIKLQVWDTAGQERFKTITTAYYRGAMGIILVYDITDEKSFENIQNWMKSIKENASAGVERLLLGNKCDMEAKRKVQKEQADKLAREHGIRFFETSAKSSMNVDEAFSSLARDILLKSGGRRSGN
The experiment is described as follows: dynamic scanning fluorimetry (SYPRO Orange). Type of experiment: binding. The following applies: 1 mM nucleotide, 4 uM protein, 2.5 mM MgCl2, pH 7.4.

The target of the next experiment is T4, Rab10 (Homo sapiens, UniProt P61026).
T4 construct: near full-length without C-terminal prenylation region; pET-28a, His6 tag cut by TEV; E. coli BL21(DE3)
T4 sequence (P61026 1-181 limits assumed): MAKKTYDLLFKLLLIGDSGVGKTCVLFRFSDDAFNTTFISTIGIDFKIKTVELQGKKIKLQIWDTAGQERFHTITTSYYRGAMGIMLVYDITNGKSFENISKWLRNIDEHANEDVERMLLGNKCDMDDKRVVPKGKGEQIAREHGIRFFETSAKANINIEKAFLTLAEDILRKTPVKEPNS
As to the kind of experiment: dynamic scanning fluorimetry (SYPRO Orange). Type of experiment: binding. The following applies: 1 mM nucleotide, 4 uM protein, 2.5 mM MgCl2, pH 7.4.

A further experiment concerns the target T5, Rab8A (Homo sapiens, UniProt P61006).
T5 construct: near full-length without C-terminal prenylation region; pET-28a, His6 tag cut by TEV; E. coli BL21(DE3)
T5 sequence (P61006 1-203 limits assumed): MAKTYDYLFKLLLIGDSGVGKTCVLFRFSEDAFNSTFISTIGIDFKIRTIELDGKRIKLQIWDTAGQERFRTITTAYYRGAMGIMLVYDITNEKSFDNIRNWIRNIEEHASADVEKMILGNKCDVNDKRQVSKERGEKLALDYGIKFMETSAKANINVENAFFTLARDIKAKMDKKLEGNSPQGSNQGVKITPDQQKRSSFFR
As to the kind of experiment: dynamic scanning fluorimetry (SYPRO Orange). Type of experiment: binding. The following applies: 1 mM nucleotide, 4 uM protein, 2.5 mM MgCl2, pH 7.4; shift relative to apo.

Experiment [1] addresses LRRK2 (Leucine-rich repeat kinase 2) (UniProt Q5S007).
Another experiment deals with T6, Rab2A (Homo sapiens, UniProt P61019).
T6 construct: near full-length without C-terminal prenylation region; pET-28a, His6 tag cut by TEV; E. coli BL21(DE3)
T6 sequence (P61019 1-210 limits assumed): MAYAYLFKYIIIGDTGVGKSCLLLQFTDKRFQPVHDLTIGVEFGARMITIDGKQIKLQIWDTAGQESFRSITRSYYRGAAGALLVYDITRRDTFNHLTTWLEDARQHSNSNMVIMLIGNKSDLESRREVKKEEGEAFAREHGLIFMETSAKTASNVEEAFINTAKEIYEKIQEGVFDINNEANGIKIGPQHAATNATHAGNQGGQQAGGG
As to the kind of experiment: dynamic scanning fluorimetry (SYPRO Orange). Type of experiment: binding. To be noted: 1 mM nucleotide, 4 uM protein, 2.5 mM MgCl2, pH 7.4.

A further experiment has as its target T7, Rab43 (Homo sapiens, UniProt Q86YS6).
T7 construct: near full-length without C-terminal prenylation region; pET-28a, His6 tag cut by TEV; E. coli BL21(DE3)
T7 sequence (Q86YS6 1-185 limits assumed): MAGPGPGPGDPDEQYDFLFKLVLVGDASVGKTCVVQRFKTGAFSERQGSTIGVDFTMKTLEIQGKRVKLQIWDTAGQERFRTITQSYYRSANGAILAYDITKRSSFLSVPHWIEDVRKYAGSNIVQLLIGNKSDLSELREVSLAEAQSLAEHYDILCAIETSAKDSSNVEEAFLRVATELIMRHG
The experiment is described as follows: dynamic scanning fluorimetry (SYPRO Orange). In kind it is binding. To be noted: 1 mM nucleotide, 4 uM protein, 2.5 mM MgCl2, pH 7.4.

A further experiment deals with T8, Rab8B (Homo sapiens, UniProt Q92930).
T8 construct: near full-length without C-terminal prenylation region; pET-28a, His6 tag cut by TEV; E. coli BL21(DE3)
T8 sequence (Q92930 1-203 limits assumed): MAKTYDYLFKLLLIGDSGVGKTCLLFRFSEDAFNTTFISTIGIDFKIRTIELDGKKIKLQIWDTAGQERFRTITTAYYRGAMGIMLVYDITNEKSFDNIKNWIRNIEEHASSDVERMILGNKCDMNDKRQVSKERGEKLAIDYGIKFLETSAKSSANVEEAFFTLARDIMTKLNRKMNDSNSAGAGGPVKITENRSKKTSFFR
The experiment is described as follows: dynamic scanning fluorimetry (SYPRO Orange). In kind it is binding. To be noted: 1 mM nucleotide, 4 uM protein, 2.5 mM MgCl2, pH 7.4.

Another experiment addresses T9, Rab29 (Homo sapiens, UniProt O14966).
T9 construct: near full-length without C-terminal prenylation region; pET-28a, His6 tag cut by TEV; E. coli BL21(DE3)
T9 sequence (O14966 1-195 limits assumed): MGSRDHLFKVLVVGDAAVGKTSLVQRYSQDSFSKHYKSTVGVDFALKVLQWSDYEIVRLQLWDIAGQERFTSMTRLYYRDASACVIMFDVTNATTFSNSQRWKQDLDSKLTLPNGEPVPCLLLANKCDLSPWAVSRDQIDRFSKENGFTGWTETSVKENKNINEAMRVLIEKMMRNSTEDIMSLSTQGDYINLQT
The experiment is described as follows: dynamic scanning fluorimetry (SYPRO Orange). Type of experiment: binding. To be noted: 1 mM nucleotide, 4 uM protein, 2.5 mM MgCl2, pH 7.4.

The target of a further experiment is T10, Rab1A (Homo sapiens, UniProt P62820).
T10 construct: near full-length without C-terminal prenylation region; pET-28a, His6 tag cut by TEV; E. coli BL21(DE3)
T10 sequence (P62820 1-203 limits assumed): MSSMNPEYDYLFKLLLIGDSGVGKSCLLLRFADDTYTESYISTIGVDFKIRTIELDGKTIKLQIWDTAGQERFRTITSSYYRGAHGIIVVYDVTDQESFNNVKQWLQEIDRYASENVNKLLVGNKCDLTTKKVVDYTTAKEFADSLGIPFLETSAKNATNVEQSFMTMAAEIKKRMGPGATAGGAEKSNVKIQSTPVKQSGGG
As to the kind of experiment: dynamic scanning fluorimetry (SYPRO Orange). Type of experiment: binding. To be noted: 1 mM nucleotide, 4 uM protein, 2.5 mM MgCl2, pH 7.4.

In a further experiment the target is T11, Rab15 (Homo sapiens, UniProt P59190).
T11 construct: near full-length without C-terminal prenylation region; pET-28a, His6 tag cut by TEV; E. coli BL21(DE3)
T11 sequence (P59190 1-208 limits assumed): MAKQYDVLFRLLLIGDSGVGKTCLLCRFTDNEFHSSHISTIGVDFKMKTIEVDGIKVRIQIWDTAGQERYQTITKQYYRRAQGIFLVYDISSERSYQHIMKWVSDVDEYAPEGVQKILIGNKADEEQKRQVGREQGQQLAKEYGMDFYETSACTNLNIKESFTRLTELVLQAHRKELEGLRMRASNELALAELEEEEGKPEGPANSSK
The experiment is described as follows: dynamic scanning fluorimetry (SYPRO Orange). The following applies: 1 mM nucleotide, 4 uM protein, 2.5 mM MgCl2, pH 7.4. In kind it is binding.

In the next experiment the target is T12, Rab3A (Homo sapiens, UniProt P20336).
T12 construct: near full-length without C-terminal prenylation region; pET-28a, His6 tag cut by TEV; E. coli BL21(DE3)
T12 sequence (P20336 1-200 limits assumed): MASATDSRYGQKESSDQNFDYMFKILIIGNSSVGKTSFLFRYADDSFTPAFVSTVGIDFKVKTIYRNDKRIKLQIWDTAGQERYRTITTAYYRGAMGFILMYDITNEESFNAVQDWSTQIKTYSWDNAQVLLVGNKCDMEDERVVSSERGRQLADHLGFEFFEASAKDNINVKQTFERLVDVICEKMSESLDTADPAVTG
As to the kind of experiment: dynamic scanning fluorimetry (SYPRO Orange). The following applies: 1 mM nucleotide, 4 uM protein, 2.5 mM MgCl2, pH 7.4. In kind it is binding.

The next experiment deals with T13, Rab12 (Homo sapiens, UniProt Q6IQ22).
T13 construct: near full-length without C-terminal prenylation region; pET-28a, His6 tag cut by TEV; E. coli BL21(DE3)
T13 sequence (Q6IQ22 97-318 limits assumed): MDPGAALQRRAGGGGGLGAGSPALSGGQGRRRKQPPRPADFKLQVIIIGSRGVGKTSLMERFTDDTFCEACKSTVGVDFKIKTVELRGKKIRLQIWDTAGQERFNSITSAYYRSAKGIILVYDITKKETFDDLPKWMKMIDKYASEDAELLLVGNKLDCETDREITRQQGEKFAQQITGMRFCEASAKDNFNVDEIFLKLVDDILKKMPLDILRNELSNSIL
As to the kind of experiment: dynamic scanning fluorimetry (SYPRO Orange). In kind it is binding. The following applies: 1 mM nucleotide, 4 uM protein, 2.5 mM MgCl2, pH 7.4.

LRRK2 (Leucine-rich repeat kinase 2), sequence (Q5S007 whole entry): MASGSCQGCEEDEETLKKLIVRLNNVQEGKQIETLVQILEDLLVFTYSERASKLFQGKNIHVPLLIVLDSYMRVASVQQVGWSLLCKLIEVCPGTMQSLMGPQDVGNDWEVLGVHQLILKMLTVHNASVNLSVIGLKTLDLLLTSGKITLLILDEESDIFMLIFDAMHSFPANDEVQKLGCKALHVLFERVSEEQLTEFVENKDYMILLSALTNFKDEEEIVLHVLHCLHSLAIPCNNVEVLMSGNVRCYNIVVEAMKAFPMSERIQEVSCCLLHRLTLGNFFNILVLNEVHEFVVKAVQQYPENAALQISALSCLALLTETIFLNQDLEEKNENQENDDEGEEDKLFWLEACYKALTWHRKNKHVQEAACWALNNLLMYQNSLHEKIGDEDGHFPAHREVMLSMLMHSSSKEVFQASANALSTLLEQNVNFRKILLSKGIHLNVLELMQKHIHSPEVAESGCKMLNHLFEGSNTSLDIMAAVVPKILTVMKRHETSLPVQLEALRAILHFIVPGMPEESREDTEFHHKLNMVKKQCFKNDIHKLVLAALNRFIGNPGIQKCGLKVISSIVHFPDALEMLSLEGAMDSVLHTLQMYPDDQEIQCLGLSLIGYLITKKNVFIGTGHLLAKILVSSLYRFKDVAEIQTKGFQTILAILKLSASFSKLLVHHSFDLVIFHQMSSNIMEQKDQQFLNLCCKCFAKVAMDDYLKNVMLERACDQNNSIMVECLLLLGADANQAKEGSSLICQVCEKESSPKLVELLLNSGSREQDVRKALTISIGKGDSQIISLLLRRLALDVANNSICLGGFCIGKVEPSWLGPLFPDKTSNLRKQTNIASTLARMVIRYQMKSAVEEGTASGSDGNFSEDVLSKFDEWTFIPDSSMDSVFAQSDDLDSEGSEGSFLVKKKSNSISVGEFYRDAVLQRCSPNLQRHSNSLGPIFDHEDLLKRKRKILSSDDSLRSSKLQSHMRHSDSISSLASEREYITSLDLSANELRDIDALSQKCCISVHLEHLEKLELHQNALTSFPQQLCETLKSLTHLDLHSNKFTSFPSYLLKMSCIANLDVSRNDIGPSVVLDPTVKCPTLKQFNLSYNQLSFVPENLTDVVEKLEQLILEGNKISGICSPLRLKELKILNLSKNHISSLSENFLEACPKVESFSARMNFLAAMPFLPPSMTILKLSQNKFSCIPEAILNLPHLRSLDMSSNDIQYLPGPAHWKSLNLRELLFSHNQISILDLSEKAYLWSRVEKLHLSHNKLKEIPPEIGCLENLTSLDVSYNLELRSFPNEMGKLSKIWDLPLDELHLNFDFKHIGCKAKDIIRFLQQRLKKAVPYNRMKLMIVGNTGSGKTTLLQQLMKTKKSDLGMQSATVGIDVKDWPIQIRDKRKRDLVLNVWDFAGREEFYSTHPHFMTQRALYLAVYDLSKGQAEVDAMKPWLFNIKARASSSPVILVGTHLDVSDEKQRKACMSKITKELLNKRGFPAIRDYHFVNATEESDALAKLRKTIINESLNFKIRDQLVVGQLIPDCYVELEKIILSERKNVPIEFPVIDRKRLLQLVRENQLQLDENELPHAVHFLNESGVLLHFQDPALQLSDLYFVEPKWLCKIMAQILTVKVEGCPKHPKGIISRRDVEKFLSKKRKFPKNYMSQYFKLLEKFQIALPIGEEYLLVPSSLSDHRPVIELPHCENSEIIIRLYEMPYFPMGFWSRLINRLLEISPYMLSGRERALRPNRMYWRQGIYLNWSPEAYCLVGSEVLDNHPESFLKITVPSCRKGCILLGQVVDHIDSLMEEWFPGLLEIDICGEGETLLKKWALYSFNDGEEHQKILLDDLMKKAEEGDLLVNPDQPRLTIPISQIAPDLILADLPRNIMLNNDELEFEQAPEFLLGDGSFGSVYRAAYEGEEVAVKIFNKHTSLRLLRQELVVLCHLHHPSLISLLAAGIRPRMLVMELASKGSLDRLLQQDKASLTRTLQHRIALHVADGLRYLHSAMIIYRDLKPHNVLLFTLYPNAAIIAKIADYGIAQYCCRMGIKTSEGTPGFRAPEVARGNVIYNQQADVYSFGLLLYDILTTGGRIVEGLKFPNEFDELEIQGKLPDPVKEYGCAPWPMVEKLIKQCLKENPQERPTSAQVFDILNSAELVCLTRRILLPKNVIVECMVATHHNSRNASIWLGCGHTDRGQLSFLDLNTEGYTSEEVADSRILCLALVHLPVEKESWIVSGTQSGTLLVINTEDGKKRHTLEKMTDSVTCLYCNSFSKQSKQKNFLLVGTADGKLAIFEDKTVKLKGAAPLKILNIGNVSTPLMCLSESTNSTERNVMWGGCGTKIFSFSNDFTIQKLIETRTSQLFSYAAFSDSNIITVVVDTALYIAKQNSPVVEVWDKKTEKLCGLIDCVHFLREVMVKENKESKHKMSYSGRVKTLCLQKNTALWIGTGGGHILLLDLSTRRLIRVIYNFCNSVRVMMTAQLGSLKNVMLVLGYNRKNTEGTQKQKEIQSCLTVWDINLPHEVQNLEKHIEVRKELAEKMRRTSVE

Consider `Nc1nc2c(ncn2[C@@H]2O[C@H](COP(=O)(O)OP(=O)(O)OP(=O)(O)O)[C@@H](O)[C@H]2O)c(=O)[nH]1` [GTP], for which the Tm result on Rab9A is “for several Rabs including Rab9A and Rab13, the Rab:GDP and Rab:GTP complexes displayed equal stability”; on Rab7A, “All Rabs from the panel bound to and were stabilized by guanine nucleotides”; on Rab13 it was “for several Rabs including Rab9A and Rab13, the Rab:GDP and Rab:GTP complexes displayed equal stability”; on Rab10 it was “All Rabs from the panel bound to and were stabilized by guanine nucleotides”. At Rab8A, the dTm is 21 K.
In experiment [1], “Rab8A E108R (from UniProt P61006 1-207) (natural protein)” registered a T72 phosphograde of the Rab8A:GDP variant after phosphorylation by LRRK2, relative to wildtype Rab8A (ESI-TOF MS kinase activity assay) (fold (increase)) of 18.
Molecule “Rab8A R104A (from UniProt P61006 1-207) (natural protein)” came in with a T72 phosphograde of the Rab8A:GDP variant after phosphorylation by LRRK2, relative to wildtype Rab8A (ESI-TOF MS kinase activity assay) (fold (reduced)) in [1] of 2.
For the molecule `Nc1nc2c(ncn2[C@@H]2O[C@H](COP(=O)(O)OP(=O)(O)O)[C@@H](O)[C@H]2O)c(=O)[nH]1` [GDP], the Tm result at Rab9A was “for several Rabs including Rab9A and Rab13, the Rab:GDP and Rab:GTP complexes displayed equal stability”; at Rab2A, “All Rabs from the panel bound to and were stabilized by guanine nucleotides”; on Rab43 it was “All Rabs from the panel bound to and were stabilized by guanine nucleotides”; at Rab8B it was “All Rabs from the panel bound to and were stabilized by guanine nucleotides”; at Rab29, “All Rabs from the panel bound to and were stabilized by guanine nucleotides”; at Rab1A it was “All Rabs from the panel bound to and were stabilized by guanine nucleotides”. Also, the Tm entry at Rab7A is “All Rabs from the panel bound to and were stabilized by guanine nucleotides”; at Rab15 it was “All Rabs from the panel bound to and were stabilized by guanine nucleotides”; at Rab3A, “All Rabs from the panel bound to and were stabilized by guanine nucleotides”; at Rab12, “All Rabs from the panel bound to and were stabilized by guanine nucleotides”; on Rab13 it was “for several Rabs including Rab9A and Rab13, the Rab:GDP and Rab:GTP complexes displayed equal stability”; on Rab10, “All Rabs from the panel bound to and were stabilized by guanine nucleotides”. At Rab8A, the dTm amounted to 15 K.
